{
  "source": "patent US4882359A",
  "about": "“Azacycloalkane derivatives, absorption promoters containing the derivatives as the effective ingredient and external preparations containing the absorption promoters” (priority 1986, dated 1989)",
  "key": {"in vivo": {"experiment": "in vivo", "conditions": "rat"}, "[1]": {"tested_on": "dorsal skin of Japanese-native rabbits", "experiment": "Primary skin irritation test (Draize's method)", "format": "in vivo", "design": "key to Average irritation score, 24 hours / Average irritation score, 48 hours / Average irritation score, 72 hours: Draize points: 0-2 mild, 2-6 moderate, 6-8 severe irritation", "procedure": "As one of tests on the compounds of this invention for their topical toxicity, a primary skin irritation test was made on skins using rabbits as the subjects. More particularly, an adhesive plaster for use in batch tests, to which 100 μl of a 3% test solution of each of the compounds of Examples 12, 37, 57 and 73 of this invention in 100 ml of polyethylene glycol 300 had dropwise been applied, was applied to the hair-shorn dorsal skin of three Japanese-native rabbits weighing 2.5 to 3.0 kg each and then sealed up on the dorsal skin for 24 hours. The rabbits were evaluated three times for their dorsal skin irritative reaction 24, 48 and 72 hours after removal of the plaster by using a method in accordance with the Draize's method.\nThe results are as shown in Table 18 in which the overall evaluation is represented by the following equation. [formula] and is graded into mild irritation (0-2 points), moderate irritation (2-6 points) and severe irritation (6-8 points)."}, "[2]": {"experiment": "Skin penetration of 5-FU from test solution, diffusion cell method", "format": "in vitro ADME, female hairless mice"}, "[3]": {"experiment": "Rectal absorption of antibiotics from suppositories, serum concentration by HPLC", "format": "in vivo, male rabbits", "conditions": "relative to Control (Vehicle) = 1.0, equals AUC ratio", "protocol": "There was prepared the following suppositories of antibiotics for use in control and test groups, respectively, each group consisting of five male rabbits weighing 2.5 to 3.5 kg each."}, "[4]": {"conditions": "relative to Control (Vehicle) = 1.0", "protocol": "There were investigated the effects of the compound of this invention on the percutneous penetration of phenol red which is difficult to be penetrated using the dorsal skin of female hairless mice (each 9 weeks old) by a diffusion cell method which comprised adding 0.5 ml of a sodium chloride injection containing 2 mM of phenol red to the donor side and measuring the amount of phenol red permeated into the receptor layer by high-pace optimal densitometric meter (559 nm)."}, "glucose level in blood [5]": {"tested_on": "glucose level in blood", "experiment": "Percutaneous absorption of glibenclamide: glucose level in blood of glucose-loaded rats", "format": "in vivo, Wistar-strain male rats", "procedure": "There were prepared control and test solutions having the following respective formulations (Table 8): […]\nIn the tests, there were used groups each consisting of four Wistar-strain male rats which weighed about 200 to 250 g and abstained from food for 24 hours.\nEach of the control solutions A and B and the test solution indicated in the above Table 8 was applied to the dorsal skins, shorn by an electric clipper or shaver, of the rats of one group in an amount of 175 μl/2.5×2.5 cm^2 and then sealed up. Three hours after sealing up, 1.5 ml of 20% glucose was subcutaneously injected into said rats. Two hours after the glucose injection, the blood of the rats was collected and measured for glucose level in blood.\nFor comparison, the above procedure was followed except that azone was substituted for the compound of Example 12 in the test solution.\nFor further comparison, the blood of rats of one group which had been subjected only to 24 hours' abstinence from food (this group being hereinafter referred to as \"normal group\"), was measured for glucose level in blood. The rat groups to which the control solution A, the control solution B and the test solution were applied, are hereinafter referred to as \"control group A\", \"control group B\" and \"test group\", respectively."}, "[6]": {"experiment": "Rectal absorption of indomethacin and 5-FU from suppositories", "format": "in vivo, rabbits", "procedure": "Each of male rabbits was fasted for 24 hrs prior to the following Experiment. The two suppositories were into the rectums of the rabbit groups in an amount of 0.3 g suppository/kg, respectively. Thereafter, blood was collected from the rabbits through their ear vein to measure the collected blood samples for the serum concentration of antibiotic by HPLC.\nThere was prepared test suppositories having the following formulations: […]\nThe same procedure of Example 151 was followed except that the above suppositories were used and that 3 or 4 rabbits were used in each group."}, "[7]": {"conditions": "hydrophylic ointment, relative to Control (Vehicle) = 1.0"}, "[8]": {"conditions": "gel ointment, relative to Control (Vehicle) = 1.0"}, "glucose level in blood [9]": {"tested_on": "glucose level in blood", "experiment": "Rectal absorption of insulin from suppository: glucose level in blood of rabbits", "format": "in vivo, male rabbits", "conditions": "insulin suppository 0.3 g/kg rectal, 3% promoter where used", "procedure": "There were prepared the following suppositories for use in normal, control and test groups, respectively, each group consisting of five male rabbits weighing 2.5 to 3.5 kg each.\nThe three suppositories were into the rectums of the rabbit groups in an amount of 0.3 g suppository/kg, respectively. Thereafter, blood was collected from the rabbits through their ear vein three times with the lapse of time to measure the three collected blood samples for glucose level in blood by a glucose oxidase method. […] The results are indicated in terms of a change in glucose level in blood with respect to the glucose level in blood prior to the administration of the suppositories."}, "[10]": {"conditions": "relative to Control (Vehicle) = 1.0; equals ratio of 48 hrs values", "protocol": "There were investigated the effects of the compound of this invention on the percutaneous penetration of ketoprofen using the dorsal skin of female hairless mice (each 9 weeks old) by a diffusion cell method which comprised adding 0.5 ml of said test solution to the donor side and measuring the amount of ketoprofen permeated into the receptor layer by performance liquid chromatography (HPLC). For comparison, the above procedure was followed except that a control solution containing no compound of this invention was substituted for said test solution containing the compound of this invention."}, "[11]": {"conditions": "acryl tape, relative to Control (Vehicle) = 1.0"}, "[12]": {"experiment": "Percutaneous absorption of pindolol in rats, serum concentration by HPLC", "format": "in vivo, Wistar-strain male rats", "conditions": "relative to Control (Vehicle) = 1.0 of the same series in Table 5", "procedure": "There were provided groups each consisting of four Wistar-strain male rats each weighing 200 to 250 g and having their dorsal skin hair shorn with an electric shaver.\nEach of the test solutions (pindolol-containing preparations) was applied to the shorn dorsal skin of test rats of one of the groups in an amount of 150 μl/2.5×2.5 cm^2 and then sealed up. Three hours after the application of the test solution, the blood of the test rats was collected and measured for serum concentration of pindolol by HPLC.\nFor comparison, the above procedure was followed except that there was used a control solution which was the same as said test solution except for non-use of any compounds of this invention, and also followed using a comparative test solution which was the same as the test solution except for the substitution of a comparative compound for the compound of this invention."}, "[13]": {"experiment": "Skin penetration of pindolol from test solution, diffusion cell method", "format": "in vitro ADME, female hairless mice"}, "[14]": {"experiment": "Skin penetration of various drugs from test solution, diffusion cell method", "format": "in vitro ADME, female hairless mice"}},
  "note": "Read-outs that look alike come from different tables or passages of the source.",
  "data": [
    {"smiles": "CCCCCCCCCCSCCN1CCCC1=O", "note": "[Example 12]", "values": [
      {"measurement": "LD50 at 168 h", "setting": "in vivo; po", "result": "> 5000", "unit": "mg/kg"},
      {"measurement": "LD50 at 168 h", "setting": "in vivo; sc", "result": "> 5000", "unit": "mg/kg"},
      {"measurement": "Average irritation score, 24 hours", "setting": "[1]; 3% solution in polyethylene glycol 300, 24 hours after removal of plaster", "result": "0.3 ± 0.3"},
      {"measurement": "Average irritation score, 48 hours", "setting": "[1]; 3% solution in polyethylene glycol 300, 48 hours after removal of plaster", "result": "0.3 ± 0.3"},
      {"measurement": "Average irritation score, 72 hours", "setting": "[1]; 3% solution in polyethylene glycol 300, 72 hours after removal of plaster", "result": "0.5 ± 0.5"},
      {"measurement": "Overall evaluation (skin irritation)", "setting": "[1]; graded from irritation scores at 24, 48 and 72 hours", "result": "Mild (mild irritation (0-2 points))"},
      {"measurement": "Cumulative amount of 5-FU permeated, 24 hrs later", "setting": "[2]; 3.0 wt.% test compound, 5-FU 1.8 wt.% in ethanol/water, 24 hrs", "result": "465 ± 83", "unit": "µM"},
      {"measurement": "Cumulative amount of 5-FU permeated, 48 hrs later", "setting": "[2]; 3.0 wt.% test compound, 5-FU 1.8 wt.% in ethanol/water, 48 hrs", "result": "963 ± 22", "unit": "µM"},
      {"measurement": "Activity (5-FU permeation)", "setting": "[2]; relative to Control (Vehicle) = 1.0", "result": 4.7},
      {"measurement": "Activity (rectal absorption)", "setting": "[3]; ABPC suppository", "result": 6.3},
      {"measurement": "Activity (rectal absorption)", "setting": "[3]; CET suppository", "result": 3.0},
      {"measurement": "Activity (phenol red permeation)", "setting": "[4]", "result": 86.5},
      {"measurement": "Glucose level", "setting": "glucose level in blood [5]; glibenclamide 0.6 wt.% solution on dorsal skin, two hours after s.c. 20% glucose", "result": "115 ± 4", "unit": "mg/dL"},
      {"measurement": "Inhibition rate", "setting": "glucose level in blood [5]; glucose level, relative to control group A and normal group", "result": 46.4, "unit": "%"},
      {"measurement": "Activity (rectal absorption)", "setting": "[6]; drug: 5-FU", "result": 4.8},
      {"measurement": "Activity (rectal absorption)", "setting": "[6]; drug: Indomethacin", "result": 2.5},
      {"measurement": "Activity (indomethacin permeation)", "setting": "[7]", "result": 3.2},
      {"measurement": "Activity (indomethacin permeation)", "setting": "[8]", "result": 18.4},
      {"measurement": "Changes of glucose level to the initial, 0.5 hr", "setting": "glucose level in blood [9]; 0.5 hr", "result": -30, "unit": "mg/dL"},
      {"measurement": "Changes of glucose level to the initial, 1 hr", "setting": "glucose level in blood [9]; 1 hr", "result": -29, "unit": "mg/dL"},
      {"measurement": "Changes of glucose level to the initial, 3 hrs", "setting": "glucose level in blood [9]; 3 hrs", "result": -22, "unit": "mg/dL"},
      {"measurement": "Activity (ketoprofen permeation)", "setting": "[10]", "result": 3.3},
      {"measurement": "Activity (pindolol permeation)", "setting": "[11]", "result": 3.9},
      {"measurement": "Activity (serum concentration of pindolol)", "setting": "[12]", "result": 47.8},
      {"measurement": "Cumulative amount of pindolol permeated, 24 hrs later", "setting": "[13]", "result": "50.0 ± 7.0", "unit": "µM"},
      {"measurement": "Cumulative amount of pindolol permeated, 48 hrs later", "setting": "[13]", "result": "127.6 ± 4.8", "unit": "µM"},
      {"measurement": "Activity (pindolol permeation)", "setting": "[13]; test solution, relative to Control (Vehicle) = 1.0", "result": 34.5},
      {"measurement": "Activity (skin penetration)", "setting": "[14]; drug: 1,25-Dihydroxy VD3", "result": 5.4},
      {"measurement": "Activity (skin penetration)", "setting": "[14]; drug: 8-Bromocyclic AMP", "result": 50.3},
      {"measurement": "Activity (skin penetration)", "setting": "[14]; drug: Chlordiazepoxide", "result": 4.8},
      {"measurement": "Activity (skin penetration)", "setting": "[14]; drug: Clonidine", "result": 6.3},
      {"measurement": "Activity (skin penetration)", "setting": "[14]; drug: Clotrimazole", "result": 3.2},
      {"measurement": "Activity (skin penetration)", "setting": "[14]; drug: Diazepam", "result": 3.5},
      {"measurement": "Activity (skin penetration)", "setting": "[14]; drug: Erythromycin", "result": 4.5},
      {"measurement": "Activity (skin penetration)", "setting": "[14]; drug: Estradiol", "result": 2.0},
      {"measurement": "Activity (skin penetration)", "setting": "[14]; drug: Ketotifen", "result": 3.8},
      {"measurement": "Activity (skin penetration)", "setting": "[14]; drug: Lidocain", "result": 10.3},
      {"measurement": "Activity (skin penetration)", "setting": "[14]; drug: Nicotinic acid", "result": 15.3},
      {"measurement": "Activity (skin penetration)", "setting": "[14]; drug: Nifedipine", "result": 6.2},
      {"measurement": "Activity (skin penetration)", "setting": "[14]; drug: Prostaglandin E2", "result": 4.8},
      {"measurement": "Activity (skin penetration)", "setting": "[14]; drug: Scopolamin", "result": 2.4},
      {"measurement": "Activity (skin penetration)", "setting": "[14]; drug: Testosterone", "result": 2.5},
      {"measurement": "Activity (skin penetration)", "setting": "[14]; drug: Triamcinolone", "result": 5.5},
      {"measurement": "Activity (skin penetration)", "setting": "[14]; drug: p-Aminobenzoic acid", "result": 12.3}
    ]}
  ]
}
